These results are taken from US20260048049A1, “METHODS FOR TREATING CANCER USING INHALED ANGIOGENESIS INHIBITOR” (Pulmatrix Operating Company, Inc., priority 2022, published 2026).

Where two headings read alike, the source gives them in different places.

The test system of data set [1] is Calu-3 cell line epithelial cell monolayers. Put plainly: cNGI integrated dissolution and permeability study. The format is in vitro ADME. Particulars: Calu-3 ALI monolayer, stage 4 of cNGI. The text has this: This was done using the following equation: […]
The conditions of data set [2]: cited from earlier work.
Data set [3] can be described thus: UniDose POD in vitro dissolution of the impactor stage mass (ISM). The format is physicochemical. Particulars: 500 ml PBS pH 7.4 + 2.0% SDS, 37° C. The text has this:
The following in vitro dissolution model was used to understand the dissolution properties of itraconazole containing dry powder aerosols. The aerosol particles were collected at well-defined aerosol particle size distribution (APSD) cut-offs using the Next Generation Impactor (NGI) (Copley Scientific, UK), and then the dissolution behavior simulated using model lung fluid.
A UniDose™ (Nanopharm, Newport, United Kingdom) aerosol dose collection system combined with a modified next generation impactor (NGI) was used to uniformly deposit the impactor stage mass (ISM), which is defined as the dose collected on and below stage 2 of a next generation impactor, onto a suitable filter for subsequent dissolution studies in a USP V—Paddle over disk (POD) apparatus.
The aerosol dose was collected in the UniDose system. […] The UniDose collection system was used to uniformly deposit the whole impactor stage mass (i.e., below stage 2 of an NGI) onto a glass microfiber filter membrane, which can be seen as where the circles (representing particles or droplets) deposit. The filter was placed into a disk cassette and dissolution studies were undertaken using 500 ml PBS pH 7.4+2.0% SDS in a USP Apparatus II POD (Paddle Over Disk, USP V) at 37° C. For all studies, sink conditions were maintained within the vessel. […]

Usually half-life stands for how long it takes for the measured level to halve.

For the molecule `CCC(C)n1ncn(-c2ccc(N3CCN(c4ccc(OCC5COC(Cn6cncn6)(c6ccc(Cl)cc6Cl)O5)cc4)CC3)cc2)c1=O` (stereo not shown) [Pure ITZ, itraconazole], in data set [1], the “dissolution and permeability kinetics” value is “slower dissolution and permeability kinetics than the other formulations”. For the same molecule, the figures for the plasma protein binding in data set [2] (capsules) and in data set [2] (oral solution) were 99.6% and 99.8%, respectively. Also, in data set [3], the half-life worked out at 102 min.
